The values below come from PMC5908784, “Extracellular loops 2 and 3 of the calcitonin receptor selectively modify agonist binding and efficacy” (Biochemical Pharmacology, 2018).

What is called Emax is the greatest response seen or fitted, relative to the assay's reference. In general, EC50 refers to the midpoint of the concentration-response curve. A lower EC50 goes with greater potency.

Common to all, as to test: IP1 accumulation
Holding throughout (format): cell-based

In one experiment the target is T1, hCTR Y372A (Homo sapiens, UniProt P30988, Y372A).
T1 construct: c-Myc (N); expressed in transfected cells
T1 sequence (P30988 25-474 Y372A): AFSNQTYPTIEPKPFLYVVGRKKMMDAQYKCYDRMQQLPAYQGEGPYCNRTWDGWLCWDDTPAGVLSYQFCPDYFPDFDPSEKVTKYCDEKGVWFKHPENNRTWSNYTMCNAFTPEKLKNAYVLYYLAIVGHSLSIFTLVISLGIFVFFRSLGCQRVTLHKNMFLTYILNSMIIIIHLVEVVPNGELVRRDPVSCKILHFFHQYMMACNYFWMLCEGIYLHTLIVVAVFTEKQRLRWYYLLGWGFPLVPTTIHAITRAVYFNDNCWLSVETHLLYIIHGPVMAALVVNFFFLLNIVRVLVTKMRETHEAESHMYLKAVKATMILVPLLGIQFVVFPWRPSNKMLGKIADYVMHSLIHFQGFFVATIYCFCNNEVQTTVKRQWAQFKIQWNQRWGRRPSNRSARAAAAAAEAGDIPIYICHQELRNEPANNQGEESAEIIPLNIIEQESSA
The settings on record: mean ± S.E.M.; for Emax: IP1 maximal response, SEM. Summed up: (§1)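 HTRF IP-One readout of IP1 after 60 min ligand stimulation (LiCl present), cells seeded overnight. Normalized to 100 μM ATP max response. EC50/Emax via 3-parameter logistic curve fit.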

In a further experiment the target is T2, hCTR L298A (Homo sapiens, UniProt P30988, L298A).
T2 construct: c-Myc (N); expressed in transfected cells
T2 sequence (P30988 25-474 L298A): T1 sequence (P30988 25-474 Y372A) with L274A, A348Y
Particulars: for Emax: read-out: Emax (% WT), SEM. Summed up:
as §1

In another experiment the target is T3, hCTR M376A (Homo sapiens, UniProt P30988, M376A).
T3 construct: c-Myc (N); expressed in transfected cells
T3 sequence (P30988 25-474 M376A): T1 sequence (P30988 25-474 Y372A) with A348Y, M352A
Particulars: mean ± S.E.M.; for Emax: IP1 maximal response, SEM. A digest of the protocol:
as §1

The target of a further experiment is T4, hCTR Y299A (Homo sapiens, UniProt P30988, Y299A).
T4 construct: c-Myc (N); expressed in transfected cells
T4 sequence (P30988 25-474 Y299A): T1 sequence (P30988 25-474 Y372A) with Y275A, A348Y
Particulars: mean ± S.E.M.; for Emax: IP1 maximal response, SEM. Summed up:
as §1

The target of the next experiment is T5, hCTR M367A (Homo sapiens, UniProt P30988, M367A).
T5 construct: c-Myc (N); expressed in transfected cells
T5 sequence (P30988 25-474 M367A): T1 sequence (P30988 25-474 Y372A) with M343A, A348Y
Particulars: mean ± S.E.M.; for Emax: IP1 maximal response, SEM. A digest of the protocol: as §1

Where [1] appears, read: IP1, CV1-FlpIn cells, 60 min, LiCl.

Residue numbers refer to the chain shown, from its start. Like-named read-outs stand apart in the source and are kept apart here. Where a SMILES comes first, the peptide text is derived from it. Bridges are numbered along the chain shown (N, C = ends).

For the compound `CC(C)C[C@H](NC(=O)[C@H](CCCCN)NC(=O)CNC(=O)[C@H](CC(C)C)NC(=O)[C@@H](NC(=O)[C@@H]1CSSC[C@H](N)C(=O)N[C@@H](CO)C(=O)N[C@@H](CC(N)=O)C(=O)N[C@@H](CC(C)C)C(=O)N[C@@H](CO)C(=O)N[C@@H]([C@@H](C)O)C(=O)N1)C(C)C)C(=O)N[C@@H](CO)C(=O)N[C@@H](CCC(N)=O)C(=O)N[C@@H](CCC(=O)O)C(=O)N[C@@H](CC(C)C)C(=O)N[C@@H](Cc1c[nH]cn1)C(=O)N[C@@H](CCCCN)C(=O)N[C@@H](CC(C)C)C(=O)N[C@@H](CCC(N)=O)C(=O)N[C@H](C(=O)N[C@@H](Cc1ccc(O)cc1)C(=O)N1CCC[C@H]1C(=O)N[C@@H](CCCNC(=N)N)C(=O)N[C@H](C(=O)N[C@@H](CC(N)=O)C(=O)N[C@H](C(=O)NCC(=O)N[C@@H](CO)C(=O)NCC(=O)N[C@H](C(=O)N1CCC[C@H]1C(N)=O)[C@@H](C)O)[C@@H](C)O)[C@@H](C)O)[C@@H](C)O` [sCT], the Emax on hCTR Y372A was 46 ± 4%; on hCTR L298A, 66 ± 5%; on hCTR M376A, 95 ± 4%; on hCTR Y299A, 54 ± 5%; at hCTR M367A it was 123 ± 6%.
Take `CSCC[C@H](NC(=O)CNC(=O)[C@H](CO)NC(=O)[C@H](Cc1ccccc1)NC(=O)[C@H](CCCNC(=N)N)NC(=O)[C@H](Cc1c[nH]cn1)NC(=O)[C@H](Cc1ccccc1)NC(=O)[C@H](CC(N)=O)NC(=O)[C@H](CC(N)=O)NC(=O)[C@H](CC(C)C)NC(=O)[C@H](CC(N)=O)NC(=O)[C@H](CCCNC(=N)N)NC(=O)[C@H](Cc1c[nH]c2ccccc12)NC(=O)[C@H](Cc1ccc(O)cc1)NC(=O)[C@H](C)NC(=O)[C@H](CO)NC(=O)[C@H](CC(C)C)NC(=O)[C@@H](NC(=O)[C@@H]1CSSC[C@H](N)C(=O)N[C@@H](CO)C(=O)N[C@@H](CC(N)=O)C(=O)N[C@@H](CC(C)C)C(=O)N[C@@H](CO)C(=O)N[C@@H]([C@@H](C)O)C(=O)N1)C(C)C)C(=O)NCC(=O)N[C@@H](Cc1ccccc1)C(=O)NCC(=O)N1CCC[C@H]1C(=O)N[C@@H](CCC(=O)O)C(=O)N[C@H](C(=O)N1CCC[C@H]1C(N)=O)[C@@H](C)O` [pCT] (H-CSNLSTCVLSAYWRNLNNFHRFSGMGFGPETP-NH2; disulfide 1-7): the EC50 was 2.88 nM on hCTR Y372A (setting [1]); 4.07 nM at hCTR L298A (L298A, IP1, CV1-FlpIn cells, 60 min, LiCl, mean ± S.E.M.); 5.62 nM at hCTR M376A (setting [1]); 0.417 nM at hCTR Y299A (setting [1]); 5.13 nM at hCTR M367A (setting [1]). The Emax is 44 ± 5% at hCTR Y372A; 91 ± 10% at hCTR L298A (L298A, IP1 maximal response, mean ± S.E.M.); 47 ± 4% on hCTR M376A; 52 ± 3% on hCTR Y299A; 101 ± 8% on hCTR M367A.
On to `CC[C@H](C)[C@H](NC(=O)[C@H](C)NC(=O)[C@@H](NC(=O)[C@H](CCC(N)=O)NC(=O)[C@@H]1CCCN1C(=O)[C@H](Cc1ccccc1)NC(=O)[C@@H](NC(=O)[C@H](Cc1c[nH]cn1)NC(=O)[C@H](Cc1ccccc1)NC(=O)[C@H](CCCCN)NC(=O)[C@H](CC(N)=O)NC(=O)[C@H](Cc1ccccc1)NC(=O)[C@H](CC(=O)O)NC(=O)[C@H](CCC(N)=O)NC(=O)[C@@H](NC(=O)[C@H](Cc1ccc(O)cc1)NC(=O)[C@@H](NC(=O)CNC(=O)[C@H](CC(C)C)NC(=O)[C@H](CCSC)NC(=O)[C@@H]1CSSC[C@H](N)C(=O)NCC(=O)N[C@@H](CC(N)=O)C(=O)N[C@@H](CC(C)C)C(=O)N[C@@H](CO)C(=O)N[C@@H]([C@@H](C)O)C(=O)N1)[C@@H](C)O)[C@@H](C)O)[C@@H](C)O)[C@@H](C)O)C(=O)NCC(=O)N[C@H](C(=O)NCC(=O)N[C@@H](C)C(=O)N1CCC[C@H]1C(N)=O)C(C)C` [hCT], for which the Emax at hCTR Y372A came to 68 ± 9%; on hCTR L298A, 58 ± 6%; on hCTR M376A, 52 ± 5%; at hCTR Y299A, 34 ± 5%; at hCTR M367A, 149 ± 8%.
